{
  "source": "patent US20100105688A1",
  "about": "“PHARMACEUTICAL COMPOSITIONS COMPRISING 3,5-DIAMINO-6-(2,3-DICHLOPHENYL)-1,2,4-TRIAZINE OR R(-)-2,4-DIAMINO-5-(2,3-DICHLOROPHENYL)-6-FLUOROMETHYL PYRIMIDINE AND AN NK1” (GLAXO GROUP LIMITED, priority 2007, published 2010)",
  "key": {"Male CD rats": {"tested_on": "Male CD rats", "test": "Rat MEST model (seizure threshold, CC50)", "type": "in vivo", "experimental": "This work was conducted in compliance with the Home Office Guidance on the operation of the Animals (Scientific Procedures) Act 1986 and GlaxoSmithKline ethical standards. Male CD rats (100-145 g) were supplied by Charles River, UK. Animals were group housed (6 animal per cage) with free access to food (Standard rodent chow; Harlan, UK) and water under a 12 h light/dark cycle (lights on at 0700 h). A period of at least one week between arrival at GSK and the study was allowed in all cases.\nAnimals were administered a test compound at the appropriate dose, route and pre-treatment time and returned to their home cage. Testing occurred in a separate room from that used for housing. Testing involved determining the threshold for tonic hindlimb extensor seizures using a Hugo Sachs Electronik stimulator which delivers a constant current of 0.3 second duration, 50 Hz, sinewave form, fully adjustable between 1 and 300 mA. Stimuli were delivered via corneal electrodes (Stean T O, Atkins A R, Heidbreder C A, Quinn L P, Trail B K, Upton N. (2005) Br J. Pharmacol. 144(5):628-35). Seizure threshold was determined using the ‘up and down’ method of Kimball et al. (1957)(Kimball A W, Burnett W T Jr, Doherty D G. (1957) Radiat Res. 7(1):1-12). The first animal tested in each group was stimulated with a current that might be expected to be close to the threshold for induction of a seizure. If a tonic seizure was not induced, then next animal in the group received a stimulus 5 mA higher. If a tonic seizure was induced, then the next animal received a stimulus 5 mA lower. This is repeated for all animals within the control (vehicle) group. In the case of groups treated with a sodium channel blocker steps of 10 to 30 mA were used.\n(§1) All doses were calculated as base. ENa9 and ENa13 were dosed via the subcutaneous (s.c.) route at 1 ml/kg in a 2% v/v DMSO/saline vehicle 30 minutes prior to test. ENa7 and ENa14 were dosed orally (p.o.) in a 1% w/v methylcellulose/water vehicle at 2 ml/kg, 60 minutes before test. Compound ENK6 was dosed with via the intraperitoneal (i.p.) route 60 minutes before the test or via the s.c. route 15 minutes before test. In both cases ENK6 was dissolved in saline.\nInduction of seizure is measured as an all-or-nothing effect scored as either present (+) or absent (0) for each animal. The data for each treatment group were recorded as the number of +'s and 0's at each current level employed and this information was then used to calculate the CC50 value (current required for 50% of animals to show seizure behaviour)+standard error of the mean according to the method of Kimball et al. (1957). Drug effects were calculated as the % change in CC50. Significant differences between drug-treated animals and appropriate vehicle treated groups were assessed according to the methods of Litchfield and Wilcoxon (1949). The statistical significance of differences between sodium channel blocker alone or in combination with ENK6 was assessed using a Student's t test."}, "[1]": {"test": "Blood and brain concentrations in satellite animals of the MEST study", "type": "in vivo, rat", "settings": "satellite rats; for concentration at 60 min: rat, po, n = 1", "experimental": "Satellite animals (n=3/group) received the same drugs or combinations of drugs as the test groups, and were culled at the appropriate time after dosing. Blood and brain samples were taken for analysis of the drug concentrations in these compartments.\nas §1"}, "[2]": {"settings": "ENK6 10 mg/kg s.c. + ENa7 1 mg/kg p.o., n = 2-3"}, "[3]": {"settings": "ENK6 10 mg/kg s.c. + ENa7 3 mg/kg p.o., n = 2-3"}, "[4]": {"settings": "ENK6 30 mg/kg s.c. + ENa7 1 mg/kg p.o., n = 2"}, "[5]": {"settings": "ENK6 30 mg/kg s.c. + ENa7 3 mg/kg p.o., n = 2"}},
  "note": "Where two headings read alike, the source gives them in different places.",
  "data": [
    {"compound": "Nc1nnc(-c2cccc(Cl)c2Cl)c(N)n1", "note": "[ENa7, 3,5-diamino-6-(2,3-dichlorophenyl)-1,2,4-triazine, reference compound]", "values": [
      {"measurement": "increase in CC50 (mA)", "setting": "Male CD rats; sodium channel blocker 1 mg/kg p.o. in the presence of ENK6 10 mg/kg s.c. (first experiment)", "value": 61, "unit": "%"},
      {"measurement": "increase in CC50 (mA)", "setting": "Male CD rats; sodium channel blocker 1 mg/kg p.o. in the presence of ENK6 30 mg/kg s.c.", "value": 145, "unit": "%"},
      {"measurement": "increase in CC50 (mA)", "setting": "Male CD rats; sodium channel blocker 3 mg/kg p.o. in the presence of ENK6 30 mg/kg s.c. (second experiment)", "value": 233, "unit": "%"},
      {"measurement": "effect on seizure threshold", "setting": "Male CD rats; sodium channel blocker alone, 1 mg/kg p.o., 60 minutes before the test", "value": "little or no increase in seizure threshold"},
      {"measurement": "increase in seizure threshold", "setting": "Male CD rats; sodium channel blocker alone, 3 mg/kg p.o., 60 minutes before the test, two independent experiments", "value": "128-205%"},
      {"measurement": "concentration at 60 min", "setting": "[1]; blood, 1 mg/kg, ENK6 veh + ENa7 1 mg/kg p.o. (Table 3), read-out: Blood concentration", "value": 311, "unit": "ng/mL"},
      {"measurement": "concentration at 60 min", "setting": "[1]; blood, 1 mg/kg, ENK6 veh + ENa7 1 mg/kg p.o. (Table 4), read-out: Blood concentration", "value": 352, "unit": "ng/mL"},
      {"measurement": "concentration at 60 min", "setting": "[1]; blood, 3 mg/kg, ENK6 veh + ENa7 3 mg/kg p.o. (Table 3), read-out: Blood concentration", "value": 1180, "unit": "ng/mL"},
      {"measurement": "concentration at 60 min", "setting": "[1]; blood, 3 mg/kg, ENK6 veh + ENa7 3 mg/kg p.o. (Table 4), read-out: Blood concentration", "value": 1350, "unit": "ng/mL"},
      {"measurement": "concentration at 60 min", "setting": "[1]; brain, 1 mg/kg, ENK6 veh + ENa7 1 mg/kg p.o. (Table 3), read-out: Brain concentration", "value": 517, "unit": "ng/g"},
      {"measurement": "concentration at 60 min", "setting": "[1]; brain, 1 mg/kg, ENK6 veh + ENa7 1 mg/kg p.o. (Table 4), read-out: Brain concentration", "value": 588, "unit": "ng/g"},
      {"measurement": "concentration at 60 min", "setting": "[1]; brain, 3 mg/kg, ENK6 veh + ENa7 3 mg/kg p.o. (Table 3), read-out: Brain concentration", "value": 2830, "unit": "ng/g"},
      {"measurement": "concentration at 60 min", "setting": "[1]; brain, 3 mg/kg, ENK6 veh + ENa7 3 mg/kg p.o. (Table 4), read-out: Brain concentration", "value": 2190, "unit": "ng/g"},
      {"measurement": "Blood concentration", "setting": "[1]; [2]", "value": 581, "unit": "ng/mL"},
      {"measurement": "Brain concentration", "setting": "[1]; [2]", "value": 1125, "unit": "ng/g"},
      {"measurement": "Blood concentration", "setting": "[1]; [3]", "value": 1603, "unit": "ng/mL"},
      {"measurement": "Brain concentration", "setting": "[1]; [3]", "value": 2855, "unit": "ng/g"},
      {"measurement": "Blood concentration", "setting": "[1]; [4]", "value": 461, "unit": "ng/mL"},
      {"measurement": "Brain concentration", "setting": "[1]; [4]", "value": 752, "unit": "ng/g"},
      {"measurement": "Blood concentration", "setting": "[1]; [5]", "value": 1404, "unit": "ng/mL"},
      {"measurement": "Brain concentration", "setting": "[1]; [5]", "value": 2096, "unit": "ng/g"}
    ]}
  ]
}
